Among the data in patent US12564638B2 (SHANGHAITECH UNIVERSITY, priority 2019, dated 2026) are IC50 values, retold here.

Assay [1] has as its system HCC827 cells (EGFR Exon19 del, non-small cell lung cancer cells). The assay can be described thus: Cell viability assay (WST/CCK8), HCC827 cells. It counts as cell-based. As to conditions: Homo sapiens, HCC827, 72 h, HCC827 (Exon19 Del), 72 hours, WST (CCK8); read-out: IC50 (half inhibitory concentration). The method, boiled down:
(§1)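 Cells seeded at 3 000/well in RPMI1640 complete medium, dosed next day with compounds (top 10 μM, 3-fold, 10 points) for 72 h. Viability read with WST (CCK8) reagent; DMSO as negative control, EGFR TKIs as positive controls; IC50 determined.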

Assay [2] concerns PC9 cells (EGFR Exon 19 del, non-small cell lung cancer cells). Put plainly: Cell viability assay (WST/CCK8), PC9 cells. It counts as cell-based. As to conditions: Homo sapiens, PC-9; PC9 (Exon19 Del), 72 hours, WST (CCK8); read-out: IC50 (half inhibitory concentration). In a few lines:
as §1

On to `COc1cc2ncnc(Nc3ccc(F)c(Cl)c3)c2cc1NC(=O)/C=C/CN1CCC(N2CCN(Cc3ccc(CSc4cccc5c4CN(C4CCC(=O)NC4=O)C5=O)cc3)CC2)CC1` (stereo not shown) [SIAIS337021, (E)-N-(4-((3-chloro-4-fluorophenyl)amino)-7-methoxyquinazolin-6-yl)-4-(4-(4-(4-(((2-(2,6-dioxopiperidin-3-yl)-1-oxoisoindolin-4-yl)thio)methyl)benzyl)piperazin-1-yl)piperidin-1-yl)but-2-enamide], for which the IC50 in assay [1] turned out to be 1.3 nM; in assay [2] it was 74 nM.
As for `COc1cc2ncnc(Nc3ccc(F)c(Cl)c3)c2cc1NC(=O)/C=C/CN1CCC(N2CCN(C(=O)COc3cccc4c3CN(C3CCC(=O)NC3=O)C4=O)CC2)CC1` (stereo not shown) [SIAIS337025, (E)-N-(4-((3-chloro-4-fluorophenyl)amino)-7-methoxyquinazolin-6-yl)-4-(4-(4-(2-((2-(2,6-dioxopiperidin-3-yl)-1-oxoisoindolin-4-yl)oxy)acetyl)piperazin-1-yl)piperidin-1-yl)but-2-enamide], the IC50 in assay [1] was 5.6 nM; in assay [2] it was 36 nM.
For `COc1cc2ncnc(Nc3ccc(F)c(Cl)c3)c2cc1NC(=O)/C=C/CN1CCC(N2CCN(C(=O)CCCCOc3cccc4c3CN(C3CCC(=O)NC3=O)C4=O)CC2)CC1` (stereo not shown) [SIAIS337026, (E)-N-(4-((3-chloro-4-fluorophenyl)amino)-7-methoxyquinazolin-6-yl)-4-(4-(4-(5-((2-(2,6-dioxopiperidin-3-yl)-1-oxoisoindolin-4-yl)oxy)pentanoyl)piperazin-1-yl)piperidin-1-yl)but-2-enamide], in that order: 0.5 nM and 8.6 nM.
As for `COc1cc2ncnc(Nc3ccc(F)c(Cl)c3)c2cc1NC(=O)/C=C/CN1CCC(N2CCN(C(=O)CCCCCOc3cccc4c3CN(C3CCC(=O)NC3=O)C4=O)CC2)CC1` (stereo not shown) [SIAIS337027, (E)-N-(4-((3-chloro-4-fluorophenyl)amino)-7-methoxyquinazolin-6-yl)-4-(4-(4-(6-((2-(2,6-dioxopiperidin-3-yl)-1-oxoisoindolin-4-yl)oxy)hexanoyl)piperazin-1-yl)piperidin-1-yl)but-2-enamide], the results for the IC50 in assay [1] and in assay [2] were 1.1 nM and 13.2 nM, respectively.
As for `COc1cc2ncnc(Nc3ccc(F)c(Cl)c3)c2cc1NC(=O)/C=C/CN1CCC(N2CCN(C(=O)CCCCCCOc3cccc4c3CN(C3CCC(=O)NC3=O)C4=O)CC2)CC1` (stereo not shown) [SIAIS337028, (E)-N-(4-((3-chloro-4-fluorophenyl)amino)-7-methoxyquinazolin-6-yl)-4-(4-(4-(7-((2-(2,6-dioxopiperidin-3-yl)-1-oxoisoindolin-4-yl)oxy)heptanoyl)piperazin-1-yl)piperidin-1-yl)but-2-enamide], the IC50 in assay [1] stood at 0.9 nM; in assay [2], 20.3 nM.
As for `COc1cc2ncnc(Nc3ccc(F)c(Cl)c3)c2cc1NC(=O)/C=C/CN1CCC(N2CCN(CCCCCCOc3cccc4c3CN(C3CCC(=O)NC3=O)C4=O)CC2)CC1` (stereo not shown) [SIAIS337029, (E)-N-(4-((3-chloro-4-fluorophenyl)amino)-7-methoxyquinazolin-6-yl)-4-(4-(4-(6-((2-(2,6-dioxopiperidin-3-yl)-1-oxoisoindolin-4-yl)oxy)hexyl)piperazin-1-yl)piperidin-1-yl)but-2-enamide], the IC50 is 0.3 nM in assay [1] and 28.4 nM in assay [2].
With `COc1cc2ncnc(Nc3ccc(F)c(Cl)c3)c2cc1NC(=O)/C=C/CN1CCC(N2CCN(C(=O)CCCCCNc3cccc4c3CN(C3CCC(=O)NC3=O)C4=O)CC2)CC1` (stereo not shown) [SIAIS337035, (E)-N-(4-((3-chloro-4-fluorophenyl)amino)-7-methoxyquinazolin-6-yl)-4-(4-(4-(6-((2-(2,6-dioxopiperidin-3-yl)-1-oxoisoindolin-4-yl)amino)hexanoyl)piperazin-1-yl)piperidin-1-yl)but-2-enamide], the IC50 in assay [1] worked out at 4.3 nM; in assay [2], 6.3 nM.
On the same counts, the results for `COc1cc2ncnc(Nc3ccc(F)c(Cl)c3)c2cc1NC(=O)/C=C/CN1CCC(N2CCN(C(=O)CCCCCCNc3cccc4c3CN(C3CCC(=O)NC3=O)C4=O)CC2)CC1` (stereo not shown) [SIAIS337036, (E)-N-(4-((3-chloro-4-fluorophenyl)amino)-7-methoxyquinazolin-6-yl)-4-(4-(4-(7-((2-(2,6-dioxopiperidin-3-yl)-1-oxoisoindolin-4-yl)amino)heptanoyl)piperazin-1-yl)piperidin-1-yl)but-2-enamide] are 0.7 nM and 1.3 nM.
For `COc1cc2ncnc(Nc3ccc(F)c(Cl)c3)c2cc1NC(=O)/C=C/CN1CCC(N2CCN(C(=O)CCCCCCCCCSc3cccc4c3CN(C3CCC(=O)NC3=O)C4=O)CC2)CC1` (stereo not shown) [SIAIS337037, (E)-N-(4-((3-chloro-4-fluorophenyl)amino)-7-methoxyquinazolin-6-yl)-4-(4-(4-(10-((2-(2,6-dioxopiperidin-3-yl)-1-oxoisoindolin-4-yl)thio)decanoyl)piperazin-1-yl)piperidin-1-yl)but-2-enamide], the IC50 in assay [1] was 0.3 nM; in assay [2], 0.7 nM.
Take `COc1cc2ncnc(Nc3ccc(F)c(Cl)c3)c2cc1NC(=O)/C=C/CN1CCC(N2CCN(C(=O)CCCCCCCCCCSc3cccc4c3CN(C3CCC(=O)NC3=O)C4=O)CC2)CC1` (stereo not shown) [SIAIS337038, (E)-N-(4-((3-chloro-4-fluorophenyl)amino)-7-methoxyquinazolin-6-yl)-4-(4-(4-(11-((2-(2,6-dioxopiperidin-3-yl)-1-oxoisoindolin-4-yl)thio)undecanoyl)piperazin-1-yl)piperidin-1-yl)but-2-enamide]: the IC50 in assay [1] was found to be 0.3 nM; in assay [2], 1.6 nM.
On the same counts, the results for `COc1cc2ncnc(Nc3ccc(F)c(Cl)c3)c2cc1NC(=O)/C=C/CN1CCC(N2CCN(CCCCCCCCCCSc3cccc4c3CN(C3CCC(=O)NC3=O)C4=O)CC2)CC1` (stereo not shown) [SIAIS337039, (E)-N-(4-((3-chloro-4-fluorophenyl)amino)-7-methoxyquinazolin-6-yl)-4-(4-(4-(10-((2-(2,6-dioxopiperidin-3-yl)-1-oxoisoindolin-4-yl)thio)decyl)piperazin-1-yl)piperidin-1-yl)but-2-enamide] are 5.7 nM and 19.7 nM.
